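Assay format: 96-well plates, 48-hour exposure. GI50 is the concentration that inhibits growth by half.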 Activity calls are given as the source filed them. Cut-off read from the data, not from the text of the source: active = GI50 up to about 1.1 µM and inactive = higher.

Test systems include 786-0; A549; BT-549; EKVX; HCC 2998; HCT-116; HCT-15; Hs-578T; IGROV-1; MCF7; MOLT-4; NCI-H522; NCI/ADR-RES; OVCAR-4; PC-3; RPMI-8226; SF-539; T47D; UO-31; LOX IMVI.
Assay in all cases: inhibition of tumour cell growth, NCI panel, 48 h

Take `CC1=NN(c2nc(N)nc(CCl)n2)CC1`: the GI50 in the assay on 786-0 was 10.1 µM (inactive); in the assay on A549 it was 57.7 µM (inactive); with BT-549, 31 µM (inactive); in the assay with EKVX it was 16.1 µM (inactive); in the assay on HCC 2998, 31.2 µM (inactive); in the assay with HCT-116, 24.5 µM (inactive). The GI50 is 17.3 µM with HCT-15; 26.3 µM (inactive) with Hs-578T; 7.14 µM (inactive) in the assay with IGROV-1; 38.1 µM (inactive) in the assay on MCF7; 19.7 µM (inactive) with MOLT-4; 1.96 µM (inactive) in the assay on NCI-H522. The GI50 was 24.2 µM (inactive) in the assay with NCI/ADR-RES; 16.8 µM (inactive) with OVCAR-4; 36.2 µM (inactive) with PC-3; 38.9 µM (inactive) in the assay with RPMI-8226; 24.5 µM (inactive) in the assay on SF-539; 74.8 µM (inactive) in the assay on T47D. For the same molecule, in the assay with UO-31, the GI50 is 7.76 µM (inactive).

Turning to `OC(CCN1CCN(CCOC(c2ccccc2)c2ccccc2)CC1)c1ccccc1` (centres undefined), the GI50 in the assay with 786-0 was 18 µM (inactive); with A549 it was 44.6 µM (inactive); in the assay on BT-549 it was 23.8 µM (inactive); in the assay with EKVX it was 19.7 µM (inactive); in the assay with HCC 2998, 14.8 µM (inactive); in the assay on HCT-116, 17.5 µM (inactive). The GI50 in the assay with HCT-15 was 18.5 µM; with Hs-578T, 21.1 µM (inactive); with IGROV-1, 23.1 µM (inactive); with LOX IMVI, 19 µM (inactive); with MCF7, 22.4 µM (inactive); in the assay on NCI-H522, 17.4 µM (inactive). The GI50 in the assay on NCI/ADR-RES is 21.5 µM (inactive); in the assay with OVCAR-4, 30.1 µM (inactive); in the assay on PC-3, 21.5 µM (inactive); with SF-539 it was 20.1 µM (inactive); with T47D it was 17.2 µM (inactive); in the assay on UO-31 it was 24.7 µM (inactive).

Regarding `Cc1cc(C)nc(NC(=S)Nc2ccc(Cl)cc2)c1`, the GI50 is 22.5 µM (inactive) in the assay with 786-0; > 100 µM (inactive) in the assay on A549; > 100 µM (inactive) in the assay with BT-549; 17.4 µM (inactive) with EKVX; > 100 µM (inactive) in the assay on HCT-116; > 100 µM in the assay on HCT-15. In addition, the GI50 in the assay with Hs-578T was 21.5 µM (inactive); in the assay with IGROV-1 it was 65.8 µM (inactive); in the assay on LOX IMVI, > 100 µM (inactive); in the assay with MCF7 it was > 100 µM (inactive); in the assay with MOLT-4, > 100 µM (inactive); in the assay with NCI-H522, 1.37 µM (inactive). The GI50 was 29.2 µM (inactive) with NCI/ADR-RES; 18.4 µM (inactive) with OVCAR-4; > 100 µM (inactive) with PC-3; > 100 µM (inactive) in the assay with RPMI-8226; 53.2 µM (inactive) in the assay on SF-539; > 100 µM (inactive) in the assay with T47D. In addition, the GI50 with UO-31 is > 100 µM (inactive).

Turning to `CCN1C(NCCO)=NS(=O)(=O)c2ccccc21`, the GI50 in the assay on 786-0, in the assay with A549, in the assay on BT-549, in the assay on EKVX, in the assay with HCC 2998 and in the assay on HCT-116 was > 100 µM (inactive) each time. For the same molecule, the GI50 was > 100 µM with HCT-15; > 100 µM (inactive) in the assay on Hs-578T; > 100 µM (inactive) with IGROV-1; > 100 µM (inactive) in the assay with LOX IMVI; > 100 µM (inactive) with MCF7; > 100 µM (inactive) in the assay on MOLT-4. Besides, the GI50 with NCI-H522, in the assay with NCI/ADR-RES, in the assay with OVCAR-4, in the assay on PC-3, in the assay with SF-539 and with T47D was > 100 µM (inactive) in each case. Moreover, in the assay on UO-31, the GI50 was > 100 µM (inactive).

For the molecule `O=C1CC(=O)NC(NNS(=O)(=O)c2ccc(Cl)cc2)=N1`, the GI50 is > 100 µM (inactive) in the assay with 786-0; > 100 µM (inactive) with A549; > 100 µM (inactive) in the assay with BT-549; > 100 µM (inactive) in the assay on HCC 2998; > 100 µM (inactive) in the assay on HCT-116; > 100 µM with HCT-15. Also, the GI50 in the assay with Hs-578T, with IGROV-1, with MCF7, with MOLT-4, in the assay with NCI-H522 and with NCI/ADR-RES was > 100 µM (inactive) in each case. The GI50 with OVCAR-4, with PC-3, in the assay on RPMI-8226, with SF-539, with T47D and in the assay with UO-31 was > 100 µM (inactive) each time.

As to `C=C1C(C[C@@H]2O[C@H]3C[C@H]4O[C@@]5(C[C@@H]6O[C@]7(C[C@H](C)[C@@H]8O[C@@H]9CC(C(O)CO)O[C@@H]9C[C@@H]8O7)C[C@H](C)[C@@H]6O5)C[C@H]4O[C@H]3[C@H](C)[C@H]2O)O[C@@H](CC[C@@H]2O[C@@H](CC[C@@]34CC5O[C@H]6C(O[C@H]7CC[C@H](CC(=O)OC)O[C@@H]7[C@@H]6O3)[C@H]5O4)CC2=C)C[C@H]1C` (some centres undefined), the GI50 was < 0.0001 µM (active) with 786-0; 0.000108 µM (active) in the assay on A549; < 0.0001 µM (active) in the assay with BT-549; 0.000405 µM (active) in the assay on EKVX; < 0.0001 µM (active) with HCC 2998; < 0.0001 µM (active) in the assay on HCT-116. For the same molecule, the GI50 in the assay on HCT-15 was 0.000258 µM; in the assay on Hs-578T, < 0.0001 µM (active); in the assay on IGROV-1 it was < 0.0001 µM (active); in the assay on LOX IMVI it was < 0.0001 µM (active); in the assay with MCF7, < 0.0001 µM (active); in the assay on MOLT-4 it was 0.000146 µM (active). Also, the GI50 with NCI-H522 was < 0.0001 µM (active); in the assay on NCI/ADR-RES, 0.00466 µM (active); with OVCAR-4, 0.998 µM (active); in the assay on PC-3 it was < 0.0001 µM (active); with RPMI-8226 it was < 0.0001 µM (active); in the assay with T47D, 0.01 µM (active). Moreover, the GI50 in the assay with UO-31 is 0.000904 µM (active).

Consider `CC(C)(C)OC(=O)Cn1ncn(NC(=O)Cc2ccccc2)c1=O`, for which the GI50 in the assay with 786-0, with A549, with BT-549, in the assay on EKVX, in the assay on HCC 2998 and with HCT-116 was > 10 µM (inactive) each time. The GI50 was > 10 µM in the assay with HCT-15; > 10 µM (inactive) in the assay with Hs-578T; > 10 µM (inactive) with IGROV-1; > 10 µM (inactive) with LOX IMVI; > 10 µM (inactive) in the assay on MCF7; > 10 µM (inactive) in the assay with MOLT-4. Further, the GI50 with NCI-H522, in the assay with NCI/ADR-RES, in the assay with OVCAR-4, in the assay with PC-3, in the assay with SF-539 and in the assay with T47D was > 10 µM (inactive) each time. Also, in the assay with UO-31, the GI50 is > 10 µM (inactive).

`O=C1Nc2ccc(Br)cc2/C1=N/NC(=S)Nc1ccc(F)cc1`: the GI50 was 7.67 µM (inactive) in the assay with 786-0; 0.395 µM (active) in the assay on BT-549; 3.87 µM (inactive) in the assay with HCT-116; 1.37 µM with HCT-15; 12 µM (inactive) in the assay with Hs-578T; 0.948 µM (active) with IGROV-1. For the same molecule, the GI50 in the assay with LOX IMVI is 4.7 µM (inactive); with MCF7, 3.43 µM (inactive); with MOLT-4, 2.58 µM (inactive); in the assay on NCI-H522 it was 10.5 µM (inactive); in the assay on NCI/ADR-RES it was 1.48 µM (inactive); with OVCAR-4 it was 7.24 µM (inactive). Further, the results for the GI50 with PC-3, in the assay with SF-539 and with T47D were 5.27 µM (inactive), 9.91 µM (inactive) and 4.9 µM (inactive), respectively.

With `Cc1ccc(S(=O)(=O)C2=Cc3ccccc3C2(O)c2ccccc2)cc1` (centres undefined), the GI50 was > 10 µM (inactive) in the assay on 786-0; 32.2 µM (inactive) in the assay with A549; 24 µM (inactive) with BT-549; 24.9 µM (inactive) with EKVX; 10.4 µM (inactive) in the assay on HCC 2998; 33.3 µM (inactive) with HCT-116. Also, the GI50 in the assay on HCT-15 was 32.7 µM; in the assay on Hs-578T it was 22.6 µM (inactive); with IGROV-1, 47.1 µM (inactive); in the assay with LOX IMVI it was 17.6 µM (inactive); in the assay with MOLT-4, 29.2 µM (inactive); in the assay on NCI-H522, 21.5 µM (inactive). The GI50 in the assay with NCI/ADR-RES was 25.5 µM (inactive); with PC-3 it was 27.4 µM (inactive); in the assay with RPMI-8226, 15.8 µM (inactive); in the assay on SF-539, 24 µM (inactive); in the assay on T47D it was 34.3 µM (inactive).

For `COC(=O)[C@H](Cc1ccccc1)NC(=O)N(CCC#N)CCCCN(CCC#N)C(=O)N[C@@H](Cc1ccccc1)C(=O)OC`, the GI50 with 786-0, in the assay with A549, in the assay on BT-549, in the assay with EKVX, in the assay with HCC 2998 and in the assay on HCT-116 was > 100 µM (inactive) each time. Moreover, the GI50 in the assay on HCT-15 is > 100 µM; with Hs-578T, > 100 µM (inactive); with LOX IMVI, > 100 µM (inactive); with MCF7, > 100 µM (inactive); in the assay on MOLT-4, > 100 µM (inactive); in the assay with NCI-H522 it was > 100 µM (inactive). Also, the GI50 in the assay on NCI/ADR-RES, in the assay on OVCAR-4, with PC-3, in the assay on RPMI-8226, in the assay on T47D and in the assay on UO-31 was > 100 µM (inactive) in each case.

As to `CC1=C[C@@H]2Cc3nc4cc(Cl)ccc4c(N)c3[C@H](C1)C2`, the GI50 is 6.03 µM (inactive) in the assay with 786-0; 12.6 µM (inactive) in the assay on A549; 16.2 µM (inactive) in the assay with BT-549; 3.32 µM (inactive) with EKVX; 2.96 µM (inactive) in the assay with HCT-116; 7 µM with HCT-15. Also, the GI50 in the assay on Hs-578T was 2.42 µM (inactive); in the assay with IGROV-1, 1.76 µM (inactive); with LOX IMVI it was 5.38 µM (inactive); with MCF7 it was 10 µM (inactive); in the assay on MOLT-4, 2.07 µM (inactive); with NCI/ADR-RES, 11.7 µM (inactive). In addition, the GI50 in the assay on OVCAR-4 is 3.99 µM (inactive); with PC-3 it was 12.5 µM (inactive); with RPMI-8226 it was 3.66 µM (inactive); in the assay on SF-539, 12.4 µM (inactive); with T47D, 12.3 µM (inactive); with UO-31, 5.06 µM (inactive).
